Results taken from US20040147495A1, “Sapogenin derivatives, their synthesis and use, and methods based upon their use” (priority 2001, published 2004).

Columns and labels:
[1] = test system: Sprague Dawley rats; assay: Alzheimer's disease model (amyloid β + ibotenic acid): step-through test; assay type: in vivo, rat; settings: for Step through test Error No: 18 mg/kg/day by gastric tube for two months, wrong responses in 5 min, * p < 0.05; for number of wrong responses in step-through test (in words): 18 mg/kg/day, 5 min
Text: (§1) In addition the co-injection of amyloid β with a small amount of ibotenic acid into the rat hippocampus synergistically produces neuronal loss with infiltration of glial cells not only adjacent but also far from the injected site (Morimoto et al., 1998: Neuroscience, 84, 479-487).
(§2) Our studies used the method of Morimoto (Morimoto et al., 1998: Neuroscience, 84, 479-487) with some modifications (unilateral instead of bilateral injection). Three months old, Sprague Dawley rats, were randomly divided into different groups. Injection of amyloid β1-40 and ibotenic acid (both from Sigma) was accomplished by means of a stereotaxic instrument (Stoelting Co.) and the coordinates were AP=−0.5 mm […], L=−2.8 mm […], H=−7.0 mm (ventral to dura). The dose for each rat was amyloid β1-40 (4 μg) and ibotenic acid (1 μg) in 1 μl of saline. The injection was completed in 20 min, and the needle was withdrawn 10 min later. Then the skin was sutured.
(§3) Episarsasapogenin cathylate, sarsasapogenin cathylate, episarsasapogenin ethylsuccinate (comparison compound), episarsasapogenin, epismilagenin and diosgenin (all at a dosage of 18 mg/kg/day) were administered to animals as stable suspensions in CMC-Na (0.5%) once daily through a gastric tube. The control and the Alzheimer's model group were given the same volume of CMC-Na (0.5%) once daily. The drugs and vehicles were given for a period of two months, starting 20 days before operation.
The effect of test compounds on memory was assessed using the step-through test. A 60×15×15 cm box, divided into 2 equally sized rooms, one dark room with copper rod base, which was electrically charged (40 V ac) when in use, while the other was a light room but not electrically charged. Between the two rooms there is an opening (hole) for the rat to go through. The experiment is carried out for each rat on two consecutive days. The first day is for training; when the rat is adapted in the box for the first 3 min, then put in the light room, with its back toward the hole, and the copper rods of the dark room are charged for 5 min. The second day is for testing, when the number of crosses in 5 min are recorded. Improvements in memory are signalled by a reduction in the number of crosses.

[2] = test system: muscarinic receptor; assay: Alzheimer's disease model (amyloid β + ibotenic acid): brain muscarinic receptor density by 3H-QNB; assay type: in vivo, rat; settings: Alzheimer's model rats; for brain muscarinic receptor density (in words): 18 mg/kg/day; for Muscarinic receptor Density: 18 mg/kg/day by gastric tube for two months, * p < 0.05
Text: as §1, §2, §3
The brain samples were homogenised, centrifuged, and the pellet of centrifugation at 27000×g was re-homogenised and used for measurement. The concentration of ^3H-QNB was chosen at the saturation range. After incubation and separation, the bound portion was measured by liquid scintillation counter.

[3] = test system: m3 muscarinic receptors; assay: CHO-β2/m3 co-transfected cell line: m3 receptor density ([3H]NMS); assay type: cell-based, Chinese hamster; settings: day 5
Protocol: (§4) Chinese hamster ovary (CHO) cells expressing high levels of muscarinic receptor (˜2.2 pmol mg protein^−1) were plated on a 24 well plate, 1 day before the start of the experiment. The culture medium was replaced with medium containing vehicle (DMSO) or the compounds.
(§5) The cells were incubated for 2/3 days, then after a medium change, cells were incubated for a further 2/3 days. The cells were incubated with a saturating concentration of labelled N-methyl-scopolamine, ([^3H]NMS). Cells were washed with ice cold phosphate-buffered saline (PBS) (3×) and bound [^3H]NMS determined by solubilising receptors with RIPA buffer followed by liquid scintillation counting.
(§6) The results shown in FIG. 5 used a CHO cell line co-transfected to express both β2 adrenoceptors and m3 muscarinic receptors. To measure the β2 and m3 receptor density, both [^3H]NMS and [^3H]CGP were used.

[4] = test system: β2 adrenoceptors; assay: CHO-β2/m3 co-transfected cell line: β2 adrenoceptor density ([3H]CGP); assay type: cell-based, Chinese hamster; settings: day 5
Protocol: as §4, §5, §6

[5] = test system: muscarinic receptor; assay: Muscarinic receptor density in brain of aged rats (dual-site competitive 3H-QNB binding); assay type: in vivo, rat; settings: 18 mg kg−1 day−1 in food for three months
Protocol: (§7) Aged Sprague-Dawley rats aged were divided randomly into 4 groups, one control and groups treated for three months with either sarsasapogenin, episarsasapogenin cathylate or smilagenin (18 mg kg^−1 day^−1, n=10). A control group (n=14) of untreated young rats was also included in the study. The daily dose of drug was mixed in a minimum amount of food and was administered every morning separately to each rat.
Tissue preparation: Brains were removed quickly after decapitation, frozen in dry ice, and transferred to a freezer. The brains were homogenised and the pellet was finally suspended in buffer.
Dual-site competitive ligand binding assay: ^3H-QNB (quinuclinidyl benzilate) was used as the radio-ligand which was non-selective to M receptor subtypes in vitro. Pirenzipine was used as the selective non-radioactive competing agent. Protein concentration was determined by the micro-Lowry method.

[6] = test system: Aged Sprague-Dawley rats; assay: Y-maze learning and memory test in aged rats; assay type: in vivo, rat; settings: 18 mg kg−1 day−1 in food for three months
Protocol: as §7
A Y-maze apparatus was used for the learning and memory test. On the floor of each arm of the Y-maze is an array of copper rods to which electric current is applied whenever needed, with adjustable voltage. Each arm is 45 cm long and has a 15 W lamp at the end, which is turned on when needed. After 3 months drug administration, each rat was trained for 7 consecutive days, as follows. For each training session, the rat was put into one arm of the Y-maze, after two minutes rest, an electrical current was applied to the copper rods and the lamp of the clockwise arm was illuminated to indicate the non-stimulation area. If the rat went into that arm, one correct response was recorded, otherwise, one wrong response was recorded. This stimulation-response test was repeated 20 times each day, with a pause of 5 sec between each two consecutive tests. The number of correct responses following the twenty tests on the seventh day was used to express learning ability, (the higher the number the better the learning ability). The rats were then left resting for 30 days and the procedure was repeated once more. The number of correct responses of the 20 tests after the 30 day rest period was used to represent the memory ability

[7] = test system: rat primary cortical neurons; assay: Neuroprotection against glutamate-induced neurodegeneration (LDH release); assay type: cell-based; settings: rat primary cortical cultures pre-treated for 24 h, read 24 h after glutamate
Protocol: Rat cortical neurons were cultured for 10 days; at day 10 the medium was changed to a serum-free defined medium. On day 12, 24 hours before glutamate exposure, cultures were washed and medium was replaced with fresh medium containing positive control (β-oestradiol), test compounds (sarsasapogenin, episarsasapogenin cathylate or smilagenin) or vehicle control (DMSO, 0.25%).
On day 13, cultures were exposed to glutamate.
After the incubation period, the cultures were washed with and placed in fresh medium, supplemented with relevant compounds or vehicle to evaluate their protective effects, 24 h after glutamate exposure.
Neuronal cell survival was evaluated by measuring lactate dehydrogenase (LDH) activity released in the media 24 h after test compound treatment or glutamate+test compound exposure, using the CytoTox 96 non-radioactive kit and quantitated by measuring wavelength absorbance at 450 nm.

[8] = test system: muscarinic receptor; assay: Cell based assay: muscarinic receptor number in transfected CHO cells by [3H]NMS binding; parameters: species or system Chinese hamster; settings: CHO cells expressing muscarinic receptor
Text: Chinese hamster ovary (CHO) cells transfected with a vector coding for a muscarinic receptor and/or beta adrenoreceptor. The cell line used for the majority of the experiments was a cell line expressing a muscarinic receptor.
The effects of epismilagenin cathylate, sarsasapogenin cathylate, episarsasapogenin cathylate, episarsasapogenin succinate, epismilagenin acetate and sarsasapogenin on the expression of m receptors in CHO cells transfected with vector for the m receptor were investigated. Receptor numbers were assayed using [^3H]NMS binding and subtracting non-specific binding. Compounds were dissolved in dimethyl sulphoxide (DMSO) and DMSO was used as a control.
as §4, §5

SMILES | Step through test Error No [1] | number of wrong responses in step-through test (in words) [1] | brain muscarinic receptor density (in words) [2] | Muscarinic receptor Density [2] | density of m3 receptors [3] | decrease in β2 adrenoceptors [4] | muscarinic receptor number in brain [5] | learning and memory ability (Y-maze) [6] | glutamate-induced neurodegeneration (LDH release) [7] | effect on decrease in muscarinic receptor number over the culturing period [8]
C[C@H]1CC[C@@]2(OC1)O[C@H]1C[C@H]3[C@@H]4CC[C@@H]5C[C@H](O)CC[C@]5(C)[C@H]4CC[C@]3(C)[C@H]1[C@@H]2C [episarsasapogenin] | 1.50 ± 1.18* | significantly decreased the number of wrong responses | significant elevation in brain muscarinic receptor density | 869 ± 104* fmol/mg/protein |  |  |  |  |  | 
CC(=O)OC1CCC2(C)C(CCC3C2CCC2(C)C3CC3OC4(CCC(C)CO4)C(C)C32)C1 (stereo not shown) [epismilagenin acetate] |  |  |  |  | did not significantly alter the density of m3 receptors | significantly prevented |  |  |  | 
C[C@@H]1CC[C@@]2(OC1)O[C@H]1C[C@H]3[C@@H]4CC[C@@H]5C[C@@H](O)CC[C@]5(C)[C@H]4CC[C@]3(C)[C@H]1[C@@H]2C [smilagenin] |  |  |  |  |  |  | significantly restored the muscarinic receptor number | restored the learning and memory ability | significant reduction in the glutamate-induced neurodegeneration | 
CCOC(=O)O[C@@H]1CC[C@@]2(C)[C@H](CC[C@@H]3[C@@H]2CC[C@]2(C)[C@@H]4[C@H](C[C@@H]32)O[C@]2(CC[C@@H](C)CO2)[C@H]4C)C1 [epismilagenin cathylate, 3-Ethoxycarbonyl 5β,20α,22α,25R-spirostan-3α-ol] |  |  |  |  |  |  |  |  |  | prevents the decrease in muscarinic receptor number
CC1CCC2(OC1)OC1CC3C4CCC5CC(OC(=O)CCC(=O)O)CCC5(C)C4CCC3(C)C1C2C (stereo not drawn) [episarsasapogenin succinate, mono-3α,5β,20α,22α,25S-spirostanyl succinate] |  |  |  |  |  |  |  |  |  | prevents the decrease in muscarinic receptor number
C[C@@H]1CC[C@@]2(OC1)O[C@H]1C[C@H]3[C@@H]4CC=C5C[C@@H](O)CC[C@]5(C)[C@H]4CC[C@]3(C)[C@H]1[C@@H]2C [diosgenin, reference compound] | 3.75 ± 1.49 | ineffective in decreasing the number of wrong responses | did not significantly change the muscarinic receptor density | 770 ± 68 fmol/mg/protein |  |  |  |  |  | 
CCOC(=O)O[C@@H]1CC[C@@]2(C)[C@H](CC[C@@H]3[C@@H]2CC[C@]2(C)[C@@H]4[C@H](C[C@@H]32)O[C@]2(CC[C@H](C)CO2)[C@H]4C)C1 [episarsasapogenin cathylate, 3-Ethoxycarbonyl 5β,20α,22α,25S-spirostan-3α-ol] | 1.36 ± 0.92* | significantly decreased the number of wrong responses | significant elevation in brain muscarinic receptor density | 877 ± 89* fmol/mg/protein |  |  | significantly restored the muscarinic receptor number | restored the learning and memory ability | significant reduction in the glutamate-induced neurodegeneration | prevents the decrease in muscarinic receptor number
CCOC(=O)O[C@H]1CC[C@@]2(C)[C@H](CC[C@@H]3[C@@H]2CC[C@]2(C)[C@@H]4[C@H](C[C@@H]32)O[C@]2(CC[C@H](C)CO2)[C@H]4C)C1 [sarsasapogenin cathylate, 3-Ethoxycarbonyl 5β,20α,22α,25S-spirostan-3-β-ol] | 1.36 ± 1.03* | significantly decreased the number of wrong responses | significant elevation in brain muscarinic receptor density | 916 ± 158* fmol/mg/protein |  |  |  |  |  | prevents the decrease in muscarinic receptor number
CCOC(=O)CCC(=O)OC1CCC2(C)C(CCC3C2CCC2(C)C3CC3OC4(CCC(C)CO4)C(C)C32)C1 (stereo not shown) [episarsasapogenin ethylsuccinate, reference compound] | 3.73 ± 1.35 | ineffective in decreasing the number of wrong responses | did not significantly change the muscarinic receptor density | 774 ± 79 fmol/mg/protein |  |  |  |  |  | 
C[C@@H]1CC[C@@]2(OC1)O[C@H]1C[C@H]3[C@@H]4CC[C@@H]5C[C@H](O)CC[C@]5(C)[C@H]4CC[C@]3(C)[C@H]1[C@@H]2C [epismilagenin] | 1.73 ± 0.91* | significantly decreased the number of wrong responses | significant elevation in brain muscarinic receptor density | 877 ± 90* fmol/mg/protein |  |  |  |  |  | 
C[C@H]1CC[C@@]2(OC1)O[C@H]1C[C@H]3[C@@H]4CC[C@@H]5C[C@@H](O)CC[C@]5(C)[C@H]4CC[C@]3(C)[C@H]1[C@@H]2C [sarsasapogenin] |  |  |  |  |  |  | significantly restored the muscarinic receptor number | restored the learning and memory ability | significant reduction in the glutamate-induced neurodegeneration | prevents the decrease in muscarinic receptor number
